Columns and labels:
Design in all cases: host or cells: CHO cells, stably transfected
M1 muscarinic receptor [1] = biological target: T1, M1 muscarinic receptor (Homo sapiens, UniProt P11229); assay: [3H]NMS competition binding, M1 CHO membranes; details: competition with 1 nM [3H]NMS; read-out: Inhibition constants (Ki) as negative logarithms, M1 (converted)
T1 sequence (P11229 1-460): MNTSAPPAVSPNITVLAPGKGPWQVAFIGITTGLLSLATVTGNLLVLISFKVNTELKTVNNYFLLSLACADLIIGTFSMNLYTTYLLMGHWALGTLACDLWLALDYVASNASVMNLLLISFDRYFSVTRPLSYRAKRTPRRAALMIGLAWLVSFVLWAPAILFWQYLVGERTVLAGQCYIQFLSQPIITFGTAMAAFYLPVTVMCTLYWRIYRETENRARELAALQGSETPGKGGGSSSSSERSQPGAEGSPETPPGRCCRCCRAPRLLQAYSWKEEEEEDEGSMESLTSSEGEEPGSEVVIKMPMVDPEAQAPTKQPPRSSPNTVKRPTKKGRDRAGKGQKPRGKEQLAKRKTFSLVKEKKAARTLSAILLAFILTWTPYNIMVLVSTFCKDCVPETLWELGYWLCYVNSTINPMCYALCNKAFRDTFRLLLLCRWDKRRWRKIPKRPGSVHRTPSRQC

M2 muscarinic receptor [2] = biological target: T2, M2 muscarinic receptor (Homo sapiens, UniProt P08172); assay: [3H]NMS competition binding, M2 CHO membranes
T2 sequence (P08172 1-466): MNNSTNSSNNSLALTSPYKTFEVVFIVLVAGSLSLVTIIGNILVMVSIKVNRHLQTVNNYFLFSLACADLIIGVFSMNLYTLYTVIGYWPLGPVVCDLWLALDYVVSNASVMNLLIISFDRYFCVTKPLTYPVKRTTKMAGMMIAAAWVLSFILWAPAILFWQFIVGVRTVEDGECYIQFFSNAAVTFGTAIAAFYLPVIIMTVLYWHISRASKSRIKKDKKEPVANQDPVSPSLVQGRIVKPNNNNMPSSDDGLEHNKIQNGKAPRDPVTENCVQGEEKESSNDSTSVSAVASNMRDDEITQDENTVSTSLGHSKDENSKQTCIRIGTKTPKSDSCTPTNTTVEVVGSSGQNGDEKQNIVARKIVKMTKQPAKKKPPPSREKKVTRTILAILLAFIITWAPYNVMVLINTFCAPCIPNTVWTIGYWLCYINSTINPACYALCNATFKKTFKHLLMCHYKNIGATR

M3 muscarinic receptor [3] = biological target: T3, M3 muscarinic receptor (Homo sapiens, UniProt P20309); assay: [3H]NMS competition binding, M3 CHO membranes; details: competition with 1 nM [3H]NMS; read-out: Inhibition constants (Ki) as negative logarithms, M3 (converted)
T3 sequence (P20309 whole entry): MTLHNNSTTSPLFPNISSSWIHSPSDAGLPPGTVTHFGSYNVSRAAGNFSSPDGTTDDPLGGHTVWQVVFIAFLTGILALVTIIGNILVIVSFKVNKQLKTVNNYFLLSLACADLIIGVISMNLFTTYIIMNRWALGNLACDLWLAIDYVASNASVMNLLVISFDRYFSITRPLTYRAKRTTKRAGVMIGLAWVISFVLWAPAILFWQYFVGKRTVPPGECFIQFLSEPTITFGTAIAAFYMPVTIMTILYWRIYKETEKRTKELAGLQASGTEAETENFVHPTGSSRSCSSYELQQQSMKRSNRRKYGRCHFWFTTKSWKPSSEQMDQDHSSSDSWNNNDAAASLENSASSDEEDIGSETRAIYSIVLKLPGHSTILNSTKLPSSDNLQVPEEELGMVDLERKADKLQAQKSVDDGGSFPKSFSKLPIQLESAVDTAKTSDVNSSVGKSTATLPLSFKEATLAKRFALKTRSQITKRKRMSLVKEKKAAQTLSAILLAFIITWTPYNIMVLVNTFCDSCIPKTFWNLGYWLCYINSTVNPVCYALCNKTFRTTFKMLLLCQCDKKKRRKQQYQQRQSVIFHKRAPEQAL

M5 muscarinic receptor [4] = biological target: T4, M5 muscarinic receptor (Homo sapiens, UniProt P08912); assay: [3H]NMS competition binding, M5 CHO membranes; details: Inhibition constants (Ki) as negative logarithms, M5, competition with 1 nM [3H]NMS
T4 sequence (P08912 1-532): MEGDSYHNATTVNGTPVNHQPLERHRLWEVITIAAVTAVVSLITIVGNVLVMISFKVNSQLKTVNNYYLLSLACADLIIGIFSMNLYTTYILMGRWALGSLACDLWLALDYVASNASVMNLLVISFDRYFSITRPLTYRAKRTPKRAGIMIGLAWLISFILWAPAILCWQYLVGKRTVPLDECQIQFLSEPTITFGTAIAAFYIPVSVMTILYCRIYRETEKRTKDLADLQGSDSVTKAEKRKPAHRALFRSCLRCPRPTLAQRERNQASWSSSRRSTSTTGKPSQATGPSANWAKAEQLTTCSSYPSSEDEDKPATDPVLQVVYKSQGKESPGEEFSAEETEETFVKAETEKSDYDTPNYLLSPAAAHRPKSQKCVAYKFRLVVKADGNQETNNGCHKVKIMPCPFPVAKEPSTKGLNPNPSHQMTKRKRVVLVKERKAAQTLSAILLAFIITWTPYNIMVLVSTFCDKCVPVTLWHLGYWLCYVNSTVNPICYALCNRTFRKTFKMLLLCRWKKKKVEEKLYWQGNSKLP

M1 muscarinic receptor [5] = biological target: T1, M1 muscarinic receptor; assay: accumulation of inositol phosphates IPX, M1 CHO cells (M1Gq); assay type: cell-based
M2 muscarinic receptor [6] = biological target: T2, M2 muscarinic receptor; assay: inhibition of forskolin-stimulated cAMP, M2 CHO cells (M2Gi); assay type: cell-based
M3 muscarinic receptor [7] = biological target: T3, M3 muscarinic receptor; assay: accumulation of IPX, M3 CHO cells (M3Gq); assay type: cell-based
M5 muscarinic receptor [8] = biological target: T4, M5 muscarinic receptor; assay: accumulation of IPX, M5 CHO cells (M5Gq); assay type: cell-based

C[N+]1(Cc2ccc(Cl)s2)CC=CCC1.[I-] (centres unmarked) [Compound 7D, 1-[(5-chlorothiophen-2-yl)methyl]-1-methyl-1,2,3,6-tetrahydropyridin-1-ium iodide]
Ki (M1 muscarinic receptor [1]): 1.38 µM
Ki (M2 muscarinic receptor [2]; Inhibition constants (Ki) as negative logarithms, M2, competition with 1 nM [3H]NMS): 0.692 µM
Ki (M2 muscarinic receptor [2]; Inhibition constants Ki, at M2 receptors): 0.7 µM
Ki (M3 muscarinic receptor [3]): 3.39 µM
Ki (M5 muscarinic receptor [4]): 1.7 µM
RAi (M1 muscarinic receptor [5]): 0.0165 ± 0.0003
Δlog(τ/KA) (M1 muscarinic receptor [5]): 1.78 ± 0.21
E′MAX (M1 muscarinic receptor [5]; M1 (↑IPX), preferential response, Table 7): 7.9 ± 0.8 fold over basal
τ (M1 muscarinic receptor [5]; M1 (↑IPX), preferential response, Table 7, operational efficacy): 0.26 ± 0.03
Kd (M1 muscarinic receptor [5]; M1 (↑IPX), preferential response, Table 7, operational model, read-out: pKA (converted)): 3.98 µM
EC50 (M1 muscarinic receptor [5]; M1 (↑IPX), preferential response, Table 7, read-out: pEC50 (converted)): 3.39 µM
EC50 (M2 muscarinic receptor [6]): 3.89 µM
Kd (M2 muscarinic receptor [6]): 6.31 µM
Emax (M2 muscarinic receptor [6]; CHO): 40 ± 2%
τ (M2 muscarinic receptor [6]; M2 (↓cAMP), preferential response, Table 7, operational efficacy): 0.83 ± 0.08
RAi (M2 muscarinic receptor [6]; M2 (↓cAMP), preferential response, relative to carbachol, Tables 2, 3, 7): 0.008 ± 0.001
Δlog(τ/KA) (M2 muscarinic receptor [6]; M2 (↓cAMP), preferential response, to carbachol, Tables 2, 3, 7): 2.05 ± 0.19
RAi (M3 muscarinic receptor [7]): 0.0050 ± 0.0006
Δlog(τ/KA) (M3 muscarinic receptor [7]): 2.30 ± 0.45
E′MAX (M3 muscarinic receptor [7]; M3 (↑IPX), preferential response, Table 7): 1.8 ± 0.1 fold over basal
τ (M3 muscarinic receptor [7]; M3 (↑IPX), preferential response, Table 7, operational efficacy): 0.03 ± 0.01
Kd (M3 muscarinic receptor [7]; M3 (↑IPX), preferential response, Table 7, operational model, read-out: pKA (converted)): 3.98 µM
EC50 (M3 muscarinic receptor [7]; M3 (↑IPX), preferential response, Table 7, read-out: pEC50 (converted)): 3.16 µM
Kd (M5 muscarinic receptor [8]): 12.6 µM
E′MAX (M5 muscarinic receptor [8]; M5 (↑IPX), preferential response, Table 7): 3.5 ± 0.2 fold over basal
τ (M5 muscarinic receptor [8]; M5 (↑IPX), preferential response, Table 7, operational efficacy): 0.14 ± 0.01
RAi (M5 muscarinic receptor [8]; M5 (↑IPX), preferential response, relative to carbachol, Tables 2, 3, 7): 0.0049 ± 0.0006
Δlog(τ/KA) (M5 muscarinic receptor [8]; M5 (↑IPX), preferential response, to carbachol, Tables 2, 3, 7): 2.31 ± 0.50
EC50 (M5 muscarinic receptor [8]; pEC50, M5 (↑IPX), preferential response, Table 7): 9.77 µM
